Earlier results on three molecules are cited in patent publication US8568704B2, “Dermatological/pharmaceutical compositions comprising benzoyl peroxide, at least one naphthoic acid compound and at least one polyurethane polymer” (Galderma Research & Development, priority 2006, dated 2013).

For data set [1] the following is noted: in presence of benzoyl peroxide-based formulation.
For data set [2] the following is noted: 40° C.

The structures appear in SMILES notation. Like-named read-outs stand apart in the source and are kept apart here.

For `COc1ccc(-c2ccc3cc(C(=O)O)ccc3c2)cc1C12CC3CC(CC(C3)C1)C2` [adapalene, 6-[3-(1-adamantyl)-4-methoxyphenyl]-2-naphthoic acid], the degradation of adapalene result in data set [1] (for 24 hours) was “no degradation”.

Regarding `CC1=C(/C=C/C(C)=C/C=C/C(C)=C/C(=O)O)C(C)(C)CCC1` [tretinoin], the tretinoin degraded in data set [1] (within 2 hours) is given as 50%; in data set [1] (within 24 hours), 95%. In the case of `O=C(OOC(=O)c1ccccc1)c1ccccc1` [benzoyl peroxide], the “benzoyl peroxide degradation time” value was 29 days in data set [2] (in ethanol) and 53 days in data set [2] (in propylene glycol).
